Source: patent US20090181898A1, “ABUSE-RESISTANT A[…]” (SHIRE LLC, priority 2002, published 2009)
“And” between values parts separate entries of the source, which are not always exact repeats. Identical values can stand only once. Like-named read-outs stand apart in the source and are kept apart here.

Experiments:
[1] = Pharmacokinetics in male beagle dogs after oral or 30-min intravenous administration, 1 mg/kg (LC/MS/MS); type: in vivo; conditions: for AUC(0-t): read-out: AUC0-t of L-lysine-d-amphetamine; for AUC(0-inf): read-out: AUCinf of L-lysine-d-amphetamine; for Cmax: read-out: Cmax of L-lysine-d-amphetamine; for MRT: read-out: MRT of L-lysine-d-amphetamine; for half-life: read-out: t1/2 of L-lysine-d-amphetamine (converted)
Source text: This was a non-randomized, two-treatment crossover study. All animals were maintained on their normal diet and were fasted overnight prior to each dose administration. L-lysine-d-amphetamine dose was based on the body weight measured on the morning of each dosing day. The actual dose delivered was based on syringe weight before and after dosing. Serial blood samples were obtained from each animal by direct venipuncture of a jugular vein using vacutainer tubes containing sodium heparin as the anticoagulant. Derived plasma samples were stored frozen until shipment to Quest Pharmaceutical Services, Inc. (Newark, Del.). Pharmacokinetic analysis of the plasma assay results was conducted by Calvert. Animals were treated as follows:
Oral: The test article was administered to each animal via a single oral gavage. On Day 1, animals received the oral dose by gavage using an esophageal tube attached to a syringe. Dosing tubes were flushed with approximately 20 mL tap water to ensure the required dosing solution was delivered.
Intravenous: On Day 8, animals received L-lysine-d-amphetamine as a single 30-minute intravenous infusion into a cephalic vein.
Blood: Serial blood samples (2 mL) were collected using venipuncture tubes containing sodium heparin. Blood samples were taken at 0, 0.25, 0.5, 1, 2, 4, 8, 12, 24, 48, and 72 hours post-oral dosing. […] Collected blood samples were chilled immediately.
Microsoft Excel (Version 6, Microsoft Corp., Redmond, Wash.) was used for calculation of mean plasma concentration and graphing of the plasma concentration-time data. Pharmacokinetic analysis (non-compartmental) was performed using the WinNonlin® software program (Version 4.1, Pharsight, Inc. Mountain View, Calif.). The maximum concentration (Cmax) and the time to Cmax(Tmax) were observed values. The area under the plasma concentration-time curve (AUC) was determined using linear-log trapezoidal rules. The apparent terminal rate constant (λz) was derived using linear least-squares regression with visual inspection of the data to determine the appropriate number of points (minimum of 3 data points) for calculating λz. The AUC0-inf was calculated as the sum of AUC0-t and Cpred/λz, where Cpred was the predicted concentration at the time of the last quantifiable concentration. The plasma clearance (CL/F) was determined as the ratio of Dose/AUC0-inf. The mean residence time (MRT) was calculated as the ratio of AUMC0-inf/AUC0-inf where AUMC0-inf was the area under the first moment curve from the time zero to infinity. The volume of distribution at steady state (Vss) was estimated as CL*MRT. Half-life was calculated as ln 2/λz. The oral bioavailability (F) was calculated as the ratio of AUC0-inf following oral dosing to AUC0-inf following intravenous dosing. Descriptive statistics (mean and standard deviation) of the pharmacokinetic parameters were calculated using Microsoft Excel.
Blood samples were collected up to 24 and 72 hours after the intravenous and oral doses, respectively.

[2] = Kitchen tests: water, acid (vinegar), base (baking powder, baking soda), boiling; type: physicochemical; conditions: for free amphetamine released: heated to boiling for 20-60 minutes
Protocol: “Kitchen tests” were performed in anticipation of attempts by illicit chemists to release free amphetamine from the amphetamine conjugate.

[3] = Stability under acidic conditions; conditions: for d-amphetamine content released: reflux; for d-amphetamine released: acids; for Hydrolysis: reflux in concentrated HCl
[4] = Pharmacokinetics of d-amphetamine in male and female beagle dogs after oral administration, […]; conditions: oral […] d-amphetamine base
[5] = 30 min iv, 1 mg/kg d-amphetamine base, individual dogs, 1 mg/kg
[6] = male, beagle, dog, plasma, iv, 1 mg/kg, 30 min iv, 1 mg/kg d-amphetamine base, individual dogs
[7] = male, beagle, dog, plasma, po, 1 mg/kg, oral, 1 mg/kg d-amphetamine base, individual dogs
[8] = oral, 1 mg/kg d-amphetamine base, individual dogs, 1 mg/kg

## CC(Cc1ccccc1)NC(=O)C(N)CCCCN [L-lysine-d-amphetamine, 2,6-diaminohexanoic acid-(1-methyl-2-phenylethyl)-amide]
[1]; [5]
  AUC0-t of L-lysine-d-amphetamine: 1072.3 ng·h/mL and 914.1 ng·h/mL
  Cmax of L-lysine-d-amphetamine: 1826.4 ng/mL and 1654.2 ng/mL
  MRT of L-lysine-d-amphetamine: 19.2 min and 18 min
  Vss of L-lysine-d-amphetamine: 0.6034 L/kg and 0.656 L/kg
  t1/2 of L-lysine-d-amphetamine: 63 min
[1]; IV infusion, post-dose
  Time by which L-lysine-d-amphetamine fell below the quantifiable limit (1 ng/mL): approximately 8 hours
[1]; [6]
  AUC(0-t): 898 ng·h/mL
  AUC(0-inf): 900 ng·h/mL
  Cmax: 1470 ng/mL
  MRT: 21.6 min
  half-life: 43.2 min
[1]; male, beagle, dog, plasma, iv, 1 mg/kg, 30 min iv, 1 mg/kg d-amphetamine base, individual dogs, read-out: CL of L-lysine-d-amphetamine (converted)
  clearance: 37 mL/min/kg
[1]; male, beagle, dog, plasma, iv, 1 mg/kg, 30 min iv, 1 mg/kg d-amphetamine base, individual dogs, read-out: Vss of L-lysine-d-amphetamine
  Vd: 0.807 L/kg
[1]; male, beagle, dog, plasma, iv, 1 mg/kg, 30 min iv, 1 mg/kg d-amphetamine base, mean of 3 dogs
  AUC(0-t): 962 ng·h/mL
[1]; male, beagle, dog, plasma, iv, 1 mg/kg, 30 min iv, 1 mg/kg d-amphetamine base, mean of 3 dogs, read-out: CL of L-lysine-d-amphetamine (converted)
  clearance: 34.8 mL/min/kg
[1]; male, beagle, dog, plasma, iv, 1 mg/kg, IV 30-min infusion, 1 mg/kg, read-out: Mean clearance of L-lysine-d-amphetamine
  clearance: 34.8 mL/min/kg
[1]; [7]
  AUC(0-t): 368 ng·h/mL
  AUC(0-inf): 369 ng·h/mL
  Cmax: 407 ng/mL
  MRT: 44.4 min
  half-life: 28.8 min
[1]; male, beagle, dog, plasma, po, 1 mg/kg, oral, 1 mg/kg d-amphetamine base, individual dogs, read-out: CL/F of L-lysine-d-amphetamine (converted)
  CL/F: 90.4 mL/min/kg
[1]; male, beagle, dog, plasma, po, 1 mg/kg, oral, 1 mg/kg d-amphetamine base, individual dogs, read-out: F (bioavailability) of L-lysine-d-amphetamine
  bioavailability: 34.3%
[1]; male, beagle, dog, plasma, po, 1 mg/kg, oral, 1 mg/kg d-amphetamine base, mean of 3 dogs
  AUC(0-t): 318 ng·h/mL
[1]; [8]
  AUC0-t of L-lysine-d-amphetamine: 310.8 ng·h/mL and 275.3 ng·h/mL
  Cmax of L-lysine-d-amphetamine: 227.4 ng/mL and 350.2 ng/mL
  F (bioavailability) of L-lysine-d-amphetamine: 34.0% and 30.8%
  MRT of L-lysine-d-amphetamine: 61.8 min and 40.8 min
  t1/2 of L-lysine-d-amphetamine: 27 min and 14.4 min
[2]; Baking Powder
  free amphetamine released: 0%
[2]; Baking Soda
  free amphetamine released: 0%
[2]; Tap Water
  free amphetamine released: 0%
[2]; Vinegar
  free amphetamine released: 0%
[2]; water, vinegar, baking powder, baking soda, boiling 20-60 minutes
  Release of free amphetamine in kitchen tests: no detectable free amphetamine
[3]; 50% sulfuric acid
  d-amphetamine content released: 59%
[3]; 90° C.
  d-amphetamine released: only a limited amount
[3]; ambient temperature
  d-amphetamine released: only a limited amount
[3]; concentrated hydrochloric acid
  d-amphetamine content released: 85%
[3]; reflux in concentrated H2SO4, 2 hours
  Stability: complete decomposition
[3]; 5 hours
  Hydrolysis: 28%
[3]; 22 hours
  Hydrolysis: 76%

## d-amphetamine
[4]; Females
  Tmax of d-amphetamine: 60 min
  Tmax of d-amphetamine, Percent (of Amp): 100%
[4]; Males
  Tmax of d-amphetamine: 60 min
  Tmax of d-amphetamine, Percent (of Amp): 100%
